Source: patent US6410575B1, “Viral treatment” (The Procter & Gamble Company, priority 1999, dated 2002)
Values joined by “and” are separate entries in the source; they are usually repeats but may differ in a detail not shown here. Equal values may be shown once.

What was measured:
HEPG2 2.2.15 = test: Toxicity values in the hepatitis B test; format: cell-based; parameters: Toxicity Values, sample / Toxicity Values, mean: unit not given here
[1] = tested on: HIV-1 cell line, U937IIIB; test: Long term in vitro study, U937IIIB; format: cell-based
Protocol: (§1) Toxicity quantification involves the XTT-based evaluation. Assays were designed to characterize the long term effects of the compounds on virus production and to characterize the longer term effects of the compounds on virus production from chronically HIV infected cells.
(§2) CEM-SS cells chronically infected with HIV isolate, for example SKI (CEM-SKI) are cultured in RPMI1640 tissue culture medium supplemented with 10% fetal bovine serum and antibiotics. […] CEM-SKI or other infected cells with no added drug are used as the control cells.
(§3) Cells are allowed to grow to a density of approximately 1×10^6 cells/ml and are then passaged at a 1:10 dilution. […] The drug concentration in the flask is then increased two-fold and the cells maintained as above.
(§4) The cell populations contain integrated copies of the HIV genome and constitutively produce HIV at relatively high levels or are latently infected and only produce virus after stimulation with phorbol esters, tumor necrosis factor or IL6(U1 and ACH2). Reductions in virus products were observed when quantifying supernatant reverse transcriptase activity.
The results with U937IIIB cells were reported at weekly intervals.
The U937IIIB cell line is viral strain of the U937 cell line.

HIV-1 protease = target: T1, HIV-1 protease (Human immunodeficiency virus type 1 group M subtype B, UniProt P04585); test: Protease inhibition assay (fluorometric); format: biochemical
T1 construct: use of the fluorometric, HIV-1 protease assay; purchased Bachem
Protocol: Protease inhibition is evaluated using a fluorometric method. Enzyme (Bachem) is diluted to 116 μgm/ml in 50 mM NaOAC, 5 mM DTT, 2 mM EDTA, 10% glycerol (pH 5.0) and stored as 10 μl samples at −20° C. HIV protease substrates 1 (Molecular Probes) are diluted to a working concentration of 0.32 nmoles/μl. Enzyme (20 μl) and drug (20 μl) are added to each well of a microtiter plate as appropriate. Positive and negative controls are evaluated in parallel. Fluorescene is quantitated on Labsystems Fluroskan II using 355 nm/460 nm at 37° C. at time zero and at 30 minute intervals for 2 hours. In instances where auto-fluorescence precludes use of the fluorometric, HIV-1 protease assay or confirmation of a result is required, an HPLC based protease assay can be employed.
The mechanism of action of the (5-aryl-1,2,4-thiadiazol)-3-yl thiourea derivatives or (5-aryl-1,2,4-thiadizol)-3-yl urea derivatives is not known.

HIV-1 cell line, CEMIIIB = test: Long term in vitro study, CEMIIIB; format: cell-based
Protocol: as §1, §2, §3, §4
The results with CEMIIIB cells was reported at weekly intervals.
The CEMIIIB is a viral strain of the CEMSS cell line.

[2] = tested on: U937JE225R, a protease resistant strain; test: Long term in vitro study, U937JE225R; format: cell-based, HIV
Protocol: as §1, §2, §3, §4
The results with U937JE225R cells was reported at weekly intervals.

With `NC(=S)Nc1nsc(-c2ccccc2)n1` the “% cell control” value (HEPG2 2.2.15; 0.64 μg/ml) was 92.3%, the “Toxicity Values, mean” value (HEPG2 2.2.15; 0.64 μg/ml) was 1.021 and the “Toxicity Values, sample” value (HEPG2 2.2.15; 0.64 μg/ml) was 0.985 and 0.999 and 1.079. The “% cell control” value (HEPG2 2.2.15; 2 μg/ml) was 83.0%, the “Toxicity Values, mean” value (HEPG2 2.2.15; 2 μg/ml) was 0.919 and the “Toxicity Values, sample” value (HEPG2 2.2.15; 2 μg/ml) was 0.881 and 0.959 and 0.916. The “% cell control” value (HEPG2 2.2.15; 6.4 μg/ml) was 95.6%, the “Toxicity Values, mean” value (HEPG2 2.2.15; 6.4 μg/ml) was 1.058 and the “Toxicity Values, sample” value (HEPG2 2.2.15; 6.4 μg/ml) was 0.940 and 1.218 and 1.015. For the same compound, the “% cell control” value (HEPG2 2.2.15; 20 μg/ml) was 84.2%, the “Toxicity Values, mean” value (HEPG2 2.2.15; 20 μg/ml) was 0.932 and the “Toxicity Values, sample” value (HEPG2 2.2.15; 20 μg/ml) was 0.966 and 0.921 and 0.909. For the same compound, the “% cell control” value (HEPG2 2.2.15; 64 μg/ml) was 89.5%, the “Toxicity Values, mean” value (HEPG2 2.2.15; 64 μg/ml) was 0.991 and the “Toxicity Values, sample” value (HEPG2 2.2.15; 64 μg/ml) was 0.962 and 1.037 and 0.973. For the same compound, the “% cell control” value (HEPG2 2.2.15; 200 μg/ml) was 76.7%, the “Toxicity Values, mean” value (HEPG2 2.2.15; 200 μg/ml) was 0.849 and the “Toxicity Values, sample” value (HEPG2 2.2.15; 200 μg/ml) was 0.818 and 0.928 and 0.800. For the same compound, the TC50 (HEPG2 2.2.15; HEPG2 2.2.15) was greater than 200 µg/mL, the TC50 (HEPG2 2.2.15; HEPG2 2.2.15, replicate experiment) was greater than 200 µg/mL and the “virus production (supernatant reverse transcriptase activity)” value (shortened to “virus production”) ([1]; 7 μg/ml, day 4) was 9368. The “virus production” value ([1]; 7 μg/ml, day 11) was 8889, the “virus production” value ([1]; 7 μg/ml, day 18) was 7566 and the “virus production” value ([1]; 7 μg/ml, day 25) was 5781. The “virus production” value ([1]; 7 μg/ml, day 32) was 3414, the “virus production” value ([1]; 7 μg/ml, day 39) was 5346 and the “virus production” value ([1]; 7 μg/ml, day 46) was 4085. The “virus production” value ([1]; 7 μg/ml, day 53) was 4832, the “virus production” value ([1]; 15 μg/ml, day 4) was 9710 and the “virus production” value ([1]; 15 μg/ml, day 11) was 8025. For the same compound, the “virus production” value ([1]; 15 μg/ml, day 18) was 5435, the “virus production” value ([1]; 15 μg/ml, day 25) was 6064 and the “virus production” value ([1]; 15 μg/ml, day 32) was 2479. The “virus production” value ([1]; 15 μg/ml, day 39) was 4377, the “virus production” value ([1]; 15 μg/ml, day 46) was 3867 and the “virus production” value ([1]; 15 μg/ml, day 53) was 3510. The “virus production” value ([1]; 30 μg/ml, day 4) was 9549, the “virus production” value ([1]; 30 μg/ml, day 11) was 7639 and the “virus production” value ([1]; 30 μg/ml, day 18) was 3551. The “virus production” value ([1]; 30 μg/ml, day 25) was 4611, the “virus production” value ([1]; 30 μg/ml, day 32) was 1855 and the “virus production” value ([1]; 30 μg/ml, day 39) was 2410. For the same compound, the “virus production” value ([1]; 30 μg/ml, day 46) was 1550, the “virus production” value ([1]; 30 μg/ml, day 53) was 1819 and the EC50 (HIV-1 protease) was greater than 423 µM. For the same compound, the “activity as a protease inhibitor” value (HIV-1 protease) was “did not show activity”, the remaining activity at 0.001 µM (HIV-1 protease; 1 nM, read-out: Protease inhibition, % no drug control) was 100% and the remaining activity at 0.01 µM (HIV-1 protease; 10 nM, read-out: Protease inhibition, % no drug control) was 103%. For the same compound, the remaining activity at 0.1 µM (HIV-1 protease; 100 nM, read-out: Protease inhibition, % no drug control) was 99.9%, the remaining activity at 1 µM (HIV-1 protease; read-out: Protease inhibition, % no drug control) was 88% and the “virus production” value (HIV-1 cell line, CEMIIIB; 7 μg/ml, day 4) was 4849. For the same compound, the “virus production” value (HIV-1 cell line, CEMIIIB; 7 μg/ml, day 11) was 6658, the “virus production” value (HIV-1 cell line, CEMIIIB; 7 μg/ml, day 18) was 7078 and the “virus production” value (HIV-1 cell line, CEMIIIB; 7 μg/ml, day 25) was 5221. The “virus production” value (HIV-1 cell line, CEMIIIB; 7 μg/ml, day 32) was 5329, the “virus production” value (HIV-1 cell line, CEMIIIB; 7 μg/ml, day 39) was 7349 and the “virus production” value (HIV-1 cell line, CEMIIIB; 7 μg/ml, day 46) was 11262. For the same compound, the “virus production” value (HIV-1 cell line, CEMIIIB; 7 μg/ml, day 53) was 11286, the “virus production” value (HIV-1 cell line, CEMIIIB; 15 μg/ml, day 4) was 5078 and the “virus production” value (HIV-1 cell line, CEMIIIB; 15 μg/ml, day 11) was 5733. For the same compound, the “virus production” value (HIV-1 cell line, CEMIIIB; 15 μg/ml, day 18) was 6057, the “virus production” value (HIV-1 cell line, CEMIIIB; 15 μg/ml, day 25) was 4980 and the “virus production” value (HIV-1 cell line, CEMIIIB; 15 μg/ml, day 32) was 4273. For the same compound, the “virus production” value (HIV-1 cell line, CEMIIIB; 15 μg/ml, day 39) was 6329, the “virus production” value (HIV-1 cell line, CEMIIIB; 15 μg/ml, day 46) was 10361 and the “virus production” value (HIV-1 cell line, CEMIIIB; 15 μg/ml, day 53) was 9844. For the same compound, the “virus production” value (HIV-1 cell line, CEMIIIB; 30 μg/ml, day 4) was 5251, the “virus production” value (HIV-1 cell line, CEMIIIB; 30 μg/ml, day 11) was 6200 and the “virus production” value (HIV-1 cell line, CEMIIIB; 30 μg/ml, day 18) was 6952. The “virus production” value (HIV-1 cell line, CEMIIIB; 30 μg/ml, day 25) was 4110, the “virus production” value (HIV-1 cell line, CEMIIIB; 30 μg/ml, day 32) was 3337 and the “virus production” value (HIV-1 cell line, CEMIIIB; 30 μg/ml, day 39) was 4233. The “virus production” value (HIV-1 cell line, CEMIIIB; 30 μg/ml, day 46) was 9238, the “virus production” value (HIV-1 cell line, CEMIIIB; 30 μg/ml, day 53) was 3527 and the “virus production” value ([2]; 7 μg/ml, day 4) was 12165. The “virus production” value ([2]; 7 μg/ml, day 11) was 9465, the “virus production” value ([2]; 7 μg/ml, day 18) was 10341 and the “virus production” value ([2]; 7 μg/ml, day 25) was 9079. The “virus production” value ([2]; 7 μg/ml, day 32) was 6797, the “virus production” value ([2]; 7 μg/ml, day 39) was 9792 and the “virus production” value ([2]; 7 μg/ml, day 46) was 9915. For the same compound, the “virus production” value ([2]; 7 μg/ml, day 53) was 1094, the “virus production” value ([2]; 15 μg/ml, day 4) was 11151 and the “virus production” value ([2]; 15 μg/ml, day 11) was 9935. For the same compound, the “virus production” value ([2]; 15 μg/ml, day 18) was 9738, the “virus production” value ([2]; 15 μg/ml, day 25) was 7104 and the “virus production” value ([2]; 15 μg/ml, day 32) was 6426. The “virus production” value ([2]; 15 μg/ml, day 39) was 10618, the “virus production” value ([2]; 15 μg/ml, day 46) was 10471 and the “virus production” value ([2]; 15 μg/ml, day 53) was 9756. The “virus production” value ([2]; 30 μg/ml, day 4) was 12033, the “virus production” value ([2]; 30 μg/ml, day 11) was 9859 and the “virus production” value ([2]; 30 μg/ml, day 18) was 11874. The “virus production” value ([2]; 30 μg/ml, day 25) was 5281, the “virus production” value ([2]; 30 μg/ml, day 32) was 4154 and the “virus production” value ([2]; 30 μg/ml, day 39) was 5379. The “virus production” value ([2]; 30 μg/ml, day 46) was 5239 and the “virus production” value ([2]; 30 μg/ml, day 53) was 4423.
